Data on 15 compounds can be found in publication PMC12505902, “Inhibitors of trehalose-6-phosphate synthase activity in fungal pathogens compromise thermal tolerance pathways” (mBio, 2025).

SMILES strings stand for the structures. Converted amounts (≈) assume the structure as drawn. Like-named read-outs stand apart in the source and are kept apart here.

Test [1] deals with C. neoformans. Also on record: method as in earlier work. To be noted: Supplemental Table 5; ref (13); cited from earlier work.
In test [2] the target is T1, 6xHis-CaTps1 (Candida albicans, UniProt Q92410).
T1 construct: Briefly, the full-length; thrombin cleavage site (pET-28a linker) (N); made in house; host or cells: E. coli BL21(DE3)pLysS
T1 sequence (Q92410 1-478): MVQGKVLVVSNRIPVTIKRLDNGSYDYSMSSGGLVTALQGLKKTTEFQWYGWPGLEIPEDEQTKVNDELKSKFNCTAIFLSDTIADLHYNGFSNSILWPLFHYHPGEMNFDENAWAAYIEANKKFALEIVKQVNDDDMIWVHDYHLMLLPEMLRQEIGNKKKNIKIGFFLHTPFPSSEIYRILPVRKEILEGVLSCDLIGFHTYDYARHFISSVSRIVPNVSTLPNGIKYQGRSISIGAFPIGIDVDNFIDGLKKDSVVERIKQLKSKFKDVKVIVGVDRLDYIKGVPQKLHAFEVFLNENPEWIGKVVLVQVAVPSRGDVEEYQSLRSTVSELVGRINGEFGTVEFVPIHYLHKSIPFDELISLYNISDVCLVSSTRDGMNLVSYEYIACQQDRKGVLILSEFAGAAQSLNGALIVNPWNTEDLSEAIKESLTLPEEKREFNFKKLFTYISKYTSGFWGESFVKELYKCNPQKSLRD
Briefly: UDP Transcreener FP assay, primary screen of the 3PP library. It is filed as biochemical. To be noted: for inhibition at 500 µM: read-out: CaTps1 FP (% inhibition). The text has this:
As the first step of the trehalose biosynthesis pathway, Tps1 synthesizes T6P from the substrates UDP-glucose and G6P, followed by the release of UDP and T6P ([16]). To identify a small molecule inhibitor of Tps1 activity, we adapted an HTS utilizing the UDP Transcreener FP assay ([33], [34]). The FP assay detects the UDP released as a result of the Tps1-mediated enzymatic reaction (Fig. 1A). The FP assay Z’ factor, which describes the suitability of an assay for an HTS, is 0.87, indicating an ideal signal-to-noise ratio (Fig. S1A) ([35]). There was a greater than 175 millipolarization (mP) shift between the positive control novobiocin, an inhibitor with activity against a bacterial trehalose-P-synthase, and the negative control dimethyl sulfoxide (DMSO) (Fig. S1A) ([36]). Recombinant Tps1 from C. albicans, hereafter referred to as CaTps1, was expressed in E. coli and purified via an N-terminal 6xHis-tag and Ni^2-NTA affinity chromatography, followed by size exclusion chromatography (Fig. 1B). A 3-point pharmacophore (3PP) library, which consisted of a subset of 750 compounds of less than 300 Da in molecular mass from the St. Jude Children’s Research Hospital chemical library, was screened for the ability to inhibit 6xHis-CaTps1 activity ([37]). In the primary screen, 32 (4.3 %) compounds that inhibited the activity of 6xHis-CaTps1 by more than 10% at 500 µM concentration were identified (Fig. 1C and D). A 10% cutoff provided a significant number of hits to validate using a dose response assay (Fig. S1B). At the completion of the screen, seven compounds that inhibit the activity of CaTps1 in a dose-dependent manner were selected for further investigation (Fig. 1E; Table 1).
The glycosyltransferase activity of 6xHis-CaTps1, which results in the release of UDP, was measured using the UDP Transcreener FP assay (BellBrook Labs #3018, Madison, WI). The St. Jude Children’s Hospital (Memphis, TN) 3PP library was screened ([37]). Assays were performed at 37°C for 60 minutes in a 384-well plate using 5 µM 6xHis-CaTps1 in assay buffer containing 50 mM Tris-HCl pH 7.5, 300 mM NaCl, 10 mM MgCl2, and 1 mM dithiothreitol (DTT). Fluorescence polarization was detected using a BMG Labtech plate reader. Each assay plate contained the following additional control wells: (i) no antibody control, (ii) DMSO vehicle control, (iii) novobiocin positive control, and (iv) novobiocin dose-response. Screens were performed by the addition of single-point additions of test molecules to the above assay. The Z’ factor was calculated according to guidelines by Zhang et al., with a Z-factor of 0.5 and 1.0 indicating an excellent assay ([35]).

The test system of the next test is C. albicans. To be noted: Supplemental Table 5, cited from earlier work.
Test [3] addresses T1, 6xHis-CaTps1. Briefly: Spectrophotometric-coupled Tps1 enzyme activity assay. The test is classed as biochemical, C. albicans. To be noted: compounds diluted in DMSO, normalized to the DMSO control. On the procedure:
Fig 2 4456dh binds Tps1 and inhibits Tps1 activity. (A) Structure of 4456dh. (B and C) Glo-melt thermal shift assays reveal 4456dh destabilizes 6xHis-CaTps1 (B) and 6xHis-CnTps1 (C). The first derivative of the raw data was used to determine the melting temperature of 1 µM 6xHis-CaTps1 (B) and 1 µM 6xHis-CnTps1 (C) treated without (black) or with 2 mM 4456dh (red). […] The resulting dose-response curves were fitted to a one-site binding model to extract Kd values; the SD was calculated using the Kd values from each independent experiment (n = 3). (F) Tps1 enzyme activity assay with 5 µM 6xHis-CaTps1 (F) and 6xHis-CnTps1 (G) ±1 mM 4456dh. Error bars represent SE. […]
The ability of 4456dh to inhibit the activity of CaTps1 was tested using a spectrophotometric-coupled Tps1 enzyme assay, in which recombinant 6xHis-CaTps1 was incubated with 1 mM 4456dh at 4°C for 16 hours. […] Similarly, the effect of 1 mM 4456dh on 6xHis-CnTps1 activity was determined. […]
82 determined by SDS-PAGE analysis, were pooled and concentrated to 1 mg/mL for downstream […]
93 The data were acquired with MO.Control 1.5.3 (NanoTemper Technologies GmbH). Recorded
94 data were analyzed with MO.Affinity Analysis 2.2.7 (NanoTemper Technologies GmbH). […]
100 2X Glo-melt dye. Thermal denaturation was measured using an RT-PCR thermocycler (BioRad) […]
102 determined by identifying the inflection point of the derivative data. […]

Details of test [4]: method as in PMID 27248439. To be noted: ref [12]; cited from earlier work.
The subject of a further test is Cryptococcus gattii. Also on record: method as in PMID 27248439. The conditions noted are these: ref [12]; cited from earlier work.
Test [5] relates to C. neoformans. Also on record: method as in PMID 27248439. To be noted: ref [12]; cited from earlier work.
Setting [6] is: primary screen, 500 µM compound, 5 µM 6xHis-CaTps1, 37°C 60 minutes.

For `Nc1[nH]c(=O)ncc1F` [Flucytosine], the “MIC80” value in the test with C. neoformans [1] is 8 mg/L (≈ 62 µM).

As for `CN(C)C(C#N)c1c(F)cccc1Cl` (centres unmarked) [SJ000866107-1], the inhibition at 500 µM on 6xHis-CaTps1 [2] was determined as 18.2%.

In the case of `C[C@@H](c1ncncc1F)[C@](O)(Cn1cncn1)c1ccc(F)cc1F` [Voriconazole], in the test with C. albicans (ref (11)), the “MIC80” value is 0.06 mg/L (≈ 0.172 µM).

Take `Cn1cc(-c2csc(NC(=O)Cc3ccccn3)n2)cn1` [Compound 4456]: the “effect of SJ6675 derivatives on CaTps1 activity” value on 6xHis-CaTps1 [3] was “significantly inhibited the activity of CaTps1”.

In the case of `CC[C@H](C)C[C@H](C)CCCCCCCCC(=O)N[C@H]1C[C@@H](O)[C@@H](NCCN)NC(=O)[C@@H]2[C@@H](O)CCN2C(=O)[C@H]([C@H](O)CCN)NC(=O)[C@H]([C@H](O)[C@@H](O)c2ccc(O)cc2)NC(=O)[C@@H]2C[C@@H](O)CN2C(=O)[C@H]([C@@H](C)O)NC1=O` [Caspofungin], the “MIC80” value in the test on C. albicans (ref (12)) is 1 mg/L (≈ 0.915 µM).

For `N#CCC(=O)c1ccco1` [SJ000805629-1], the inhibition at 500 µM on 6xHis-CaTps1 [2] (setting [6]) was found to be 32.2%.

Take `CN(C)C(C#N)c1ccccc1Cl` (centres unmarked) [SJ000866063-1]: the inhibition at 500 µM at 6xHis-CaTps1 [2] worked out at 19%.

Consider `Cc1cc(C(C#N)c2ccc(Cl)cc2)c(Cl)cc1NC(=O)c1cc(I)cc(I)c1O` (centres unmarked) [Closantel], for which, in test [4], the “antifungal activity in murine models” value is “does not have antifungal activity”. Moreover, the activity in vitro result in the test with Cryptococcus gattii and in the test with C. neoformans [5] was “potent activity” each time.

With `C[C@@H]1[C@H](O)[C@@H](C)/C=C/C=C/C=C/C=C/C=C/C=C/C=C/[C@H](O[C@@H]2O[C@H](C)[C@@H](O)[C@H](N)[C@@H]2O)C[C@@H]2O[C@](O)(C[C@@H](O)C[C@@H](O)[C@H](O)CC[C@@H](O)C[C@@H](O)CC(=O)O[C@H]1C)C[C@H](O)[C@H]2C(=O)O` [Amphotericin B], the “MIC80” value in the test on C. neoformans [1] was 2 mg/L (≈ 2.16 µM).

As for `O=C(C1CC1)N1CCCNCC1` [SJ000866536-1], the inhibition at 500 µM at 6xHis-CaTps1 [2] (setting [6]) was 18.6%.

Take `Nc1nc(-c2ccoc2)cs1` [SJ000866675-1, [4-furan-3-yl]thiazol-2-amine]: the inhibition at 500 µM at 6xHis-CaTps1 [2] (setting [6]) is 13.7%.

For `OC(Cn1cncn1)(Cn1cncn1)c1ccc(F)cc1F` [Fluconazole], the “MIC80” value in the test with C. albicans (ref (11)) was 1.84 mg/L (≈ 6.01 µM).

In the case of `CC(Cc1ccoc1)NS(C)(=O)=O` (centres unmarked) [SJ000866077-1], the inhibition at 500 µM at 6xHis-CaTps1 [2] (setting [6]) came out at 11.1%.

In the case of `CO[C@@H]1[C@@H](OC(N)=O)[C@@H](O)[C@H](Oc2ccc3c(O)c(NC(=O)c4ccc(O)c(CC=C(C)C)c4)c(=O)oc3c2C)OC1(C)C` [novobiocin, reference compound], at 6xHis-CaTps1 [2] (positive control versus negative control DMSO), the “millipolarization (mP) shift between positive control and DMSO” value is “greater than 175 mP”.

As to `CN1CCc2c(sc(N)c2C#N)C1` [SJ000866390-1], the inhibition at 500 µM at 6xHis-CaTps1 [2] (setting [6]) stood at 36.4%.

One may read the MIC80 as an inhibitory concentration at the 80% level, which refers to growth in some studies and to a panel of isolates in others. A word on the inhibition: it is the drop in the measured response relative to a control, in per cent.
